# Measured values taken from US9169254B2, “Spiroimidazolone derivative” (Chugai Seiyaku Kabushiki Kaisha, priority 2009, dated 2015).
# Biological target: T1, human PTH1 receptor (Homo sapiens, UniProt Q03431)
# T1 sequence (Q03431 27-593): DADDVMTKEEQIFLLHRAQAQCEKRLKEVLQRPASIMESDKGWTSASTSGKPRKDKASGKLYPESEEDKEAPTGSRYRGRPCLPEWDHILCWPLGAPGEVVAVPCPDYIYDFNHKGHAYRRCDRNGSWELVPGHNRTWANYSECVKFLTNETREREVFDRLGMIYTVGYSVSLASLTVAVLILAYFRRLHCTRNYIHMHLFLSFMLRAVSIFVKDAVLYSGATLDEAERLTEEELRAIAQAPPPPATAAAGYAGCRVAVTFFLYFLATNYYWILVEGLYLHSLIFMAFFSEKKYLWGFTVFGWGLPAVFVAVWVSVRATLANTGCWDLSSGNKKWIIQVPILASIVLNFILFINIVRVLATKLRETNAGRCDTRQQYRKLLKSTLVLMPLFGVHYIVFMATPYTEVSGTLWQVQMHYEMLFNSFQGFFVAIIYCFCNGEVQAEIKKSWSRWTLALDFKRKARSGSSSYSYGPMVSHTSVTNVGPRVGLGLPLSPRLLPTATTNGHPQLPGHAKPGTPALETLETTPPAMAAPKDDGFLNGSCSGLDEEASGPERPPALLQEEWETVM
# Assay: In vitro cAMP signal activity in HKRK-B7 cells (LLC-PK1 cells overexpressing the human PTH1 receptor)
# Assay type: cell-based
# Settings: 0.1 µM
row,SMILES,cAMP production activity (%)
1,"Cc1cc(N(C)C(N)=O)cc(C)c1/C=C/[S@TB3](=O)(=O)N1CCC2(CC1)N=C(c1cccc(C(F)(F)C(F)(F)C(F)(F)C(F)(F)F)c1)NC2=O [Compound 1112, 1-(3,5-dimethyl-4-{(E)-2-[2-(3-nonafluorobutyl-phenyl)-4-oxo-1,3,8-triaza-spiro[4.5]dec-1-ene-8-sulfonyl]-vinyl}-phenyl)-1-methyl-urea]",76

# Same assay, conditions: HKRK-B7 cells; compound at 1×10^−3 M; cAMP produced as percentage of that produced by hPTH(1-34) at 100 nM
row,SMILES,cAMP production activity (%)
1,"CCC[C@@H]1CCC[C@H](C2=NC3(CCN(S(=O)(=O)/C=C/c4c(C)cc(N(C)C(N)=O)cc4C)CC3)C(=O)N2)C1 [Compound 1108, 1-(3,5-Dimethyl-4-{(E)-2-[4-oxo-2-((1S,3R)-3-propyl-cyclohexyl)-1,3,8-triaza-spiro[4.5]dec-1-ene-8-sulfonyl]-vinyl}-phenyl)-1-methyl-urea]",99
2,"Cc1cc(N(C)C(N)=O)cc(C)c1/C=C/[S@TB4](=O)(=O)N1CCC2(CC1)N=C(CCCCCCCCCCCCCC(=O)O)NC2=O [Compound 1109, 14-(8-{(E)-2-[2,6-dimethyl-4-(1-methyl-ureido)-phenyl]-ethenesulfonyl}-4-oxo-1,3,8-triaza-spiro[4.5]dec-1-en-2-yl)-tetradecanoic acid]",29
3,"[2H]C([2H])([2H])C1([2H])CCC(C2=NC3(CCN([S@TB18](=O)(=O)/C=C/c4c(C)cc(N(C)C(N)=O)cc4C)CC3)C(=O)N2)CC1 (stereo not shown) [Compound 1110, 1-(3,5-dimethyl-4-{(E)-2-[2-(4-[1,1,1-^2H3]methyl-[4-^2H1]cyclohexyl)-4-oxo-1,3,8-triaza-spiro[4.5]dec-1-ene-8-sulfonyl]-vinyl}-phenyl)-1-methyl-urea]",92
4,"Cc1cc(N(C)C(N)=O)cc(C)c1/C=C/[S@TB3](=O)(=O)N1CCC2(CC1)N=C(c1ccc(F)c(OC(F)(F)F)c1)NC2=O [Compound 1111, 1-(4-{(E)-2-[2-(4-fluoro-3-trifluoromethoxy-phenyl)-4-oxo-1,3,8-triaza-spiro[4.5]dec-1-ene-8-sulfonyl]-vinyl}-3,5-dimethyl-phenyl)-1-methyl-urea]",79
5,"Cc1cc(N(C)C(N)=O)cc(C)c1/C=C/[S@TB3](=O)(=O)N1CCC2(CC1)N=C(c1ccc(Cl)c(C(F)(F)F)c1)NC2=O [Compound 1113, 1-(4-{(E)-2-[2-(4-chloro-3-trifluoromethyl-phenyl)-4-oxo-1,3,8-triaza-spiro[4.5]dec-1-ene-8-sulfonyl]-vinyl}-3,5-dimethyl-phenyl)-1-methyl-urea]",99
6,"CCCc1ccc(-c2cccc(C3=NC4(CCN(S(=O)(=O)/C=C/c5c(C)cc(N(C)C(N)=O)cc5C)CC4)C(=O)N3)c2)cc1 [Compound 1114, 1-(3,5-Dimethyl-4-{(E)-2-[4-oxo-2-(4′-propyl-biphenyl-3-yl)-1,3,8-triaza-spiro[4.5]dec-1-ene-8-sulfonyl]-vinyl}-phenyl)-1-methyl-urea]",95
7,"CCOCCCCCCC1=NC2(CCN([S@TB18](=O)(=O)/C=C/c3c(C)cc(N(C)C(N)=O)cc3C)CC2)C(=O)N1 [Compound 1115, 1-(4-{(E)-2-[2-(6-ethoxy-hexyl)-4-oxo-1,3,8-triaza-spiro[4.5]dec-1-ene-8-sulfonyl]-vinyl}-3,5-dimethyl-phenyl)-1-methyl-urea]",140
8,"Cc1cc(N(C)C(N)=O)cc(C)c1/C=C/[S@TB3](=O)(=O)N1CCC2(CC1)N=C(c1cccc(CCCCCC(F)(F)F)c1)NC2=O [Compound 1116, 1-[3,5-dimethyl-4-((E)-2-{4-oxo-2-[3-(6,6,6-trifluoro-hexyl)-phenyl]-1,3,8-triaza-spiro[4.5]dec-1-ene-8-sulfonyl}-vinyl)-phenyl]-1-methyl-urea]",106
9,"Cc1cc(N(C)C(N)=O)cc(C)c1/C=C/[S@TB3](=O)(=O)N1CCC2(CC1)N=C(c1ccc(CCCCCC(F)(F)F)cc1)NC2=O [Compound 1117, 1-[3,5-dimethyl-4-((E)-2-{4-oxo-2-[4-(6,6,6-trifluoro-hexyl)-phenyl]-1,3,8-triaza-spiro[4.5]dec-1-ene-8-sulfonyl}-vinyl)-phenyl]-1-methyl-urea]",88
